Reference: patent US20200222462A1, “METHODS OF TREATMENT USING DECITABINE AND A CD123-TARGETED THERAPY” (priority 2018, published 2020)

What was measured:
[1] = tested on: AML cells; assay: CD123 expression in AML cells quantitated by fluorescence-activated cell sorting; type: cell-based
[2] = tested on: AML cell lines Kasumi-1, SKM-1 and MOLM-13; assay: Live cell counts by flow cytometry (DAPI exclusion), AML cell lines; type: cell-based; conditions: for cell numbers (dose dependent decline): day 3, 0.46-3000 nM dosed at 0, 24 and 48 hours
Experimental: (§1) Number of live cells was determined by excluding DAPI+ dead cells in each well. Average of triplicates is presented on the graph.
(§2) SKM1, Kasumi-1 and MOLM-13 cell lines were maintained in 80% RPMI 1640+20% FBS according to manufacturer's instructions. Logarithmically growing SKM1, Kasumi-1 and MOLM-13 cell lines were plated at 7,500 cells per well in 384 well microtiter plates and treated with drugs in triplicate using an acoustic liquid handler using protocol (P.SOP.007.02_Compound Addition Using GBG).
(§3) The following compounds were serially dosed in 24-hour intervals using an acoustic liquid handler. Decitabine, 5-azacytidine and guadecitabine were dosed at 3000, 1000, 333.33, 111.11, 37.04, 12.35, 4.12, 1.37 and 0.46 nM at 0, 24 and 48 hours. In addition, guadecitabine was dosed at 3000, 1000, 333.33, 111.11, 37.04, 12.35, 4.12, 1.37 and 0.46 nM at 0 hours without serial dosing (single dose). The dose range of the compounds was determined by back calculating the clinical dose and corresponding to a plasma concentration at 1.5 hours after standard dosing. The 1000 nM concentration of decitabine is based on the clinical dose of 20 mg/m^2, 1-hour intravenous infusion, one time per day for five consecutive days every 4 weeks and the maximum plasma concentration after standard dosing (1.15 micromolar). Decitabine doses in the study were selected above and below this dose. The 1000 nM concentration of 5-azacytidine is based on the clinical dose of 75 mg/m^2/day for 7 days every 28 days and the plasma concentration at 1.5 hours after standard dosing. 5-Azacytidine doses in the study were selected above and below this dose. Guadecitabine regimen is 60 mg/m^2 given subcutaneously daily on Days 1-5 in 28-day cycles (delayed as needed to allow blood count recovery). The clinically relevant guadecitabine dose is 211 nM. Cells were stained at day 0, day 3 and day 7 following cell plating samples were stained with the antibody panel details below and readout with an lntellicyt iQue Plus flow cytometer.
(§4) Cells were stained using Notable labs no wash protocol number (P.SOP.009.01_Screen Readout Automated), briefly, antibodies are added to cells with an acoustic liquid handler, incubated at 4° C. for 20 minutes and readout with an Intellicyt iQue Plus flow cytometer. Staining Panel for Cell lines: DAPI, CD123, PDL1, CD34, CD33, CD15, CD38. Live cells were gated using FSC/SSC and DAPI exclusion using FlowJo analysis software (BeckmanFLow), and then further defined by cell surface marker expression. Absolute counts or Mean Fluorescence Intensity from triplicate wells were averaged and fold change was calculated with respect to a vehicle-only (DMSO) control.

[3] = tested on: CD34+CD38+ Multipotent progenitors (MMPs) and CD34+CD38− Hematopoietic Stem Cells (HSCs); assay: Live cell counts by flow cytometry, normal donor CD34+ bone marrow cells; conditions: for cell counts (dose dependent decline): primary MMPs and HSCs, 0.46-3000 nM
Experimental: as §1
CD34 enriched bone marrow was purchase from AllCells. Fresh (never frozen) cells were plated at 15,000 cells per well in 384 well microtiter plates and treated with drugs in triplicate using an acoustic liquid handler. The following compounds were dosed serial in 24-hour intervals: decitabine, guadecitabine and 5-azacytidine were dosed at 3000, 1000, 333.33, 111.11, 37.04, 12.35, 4.12, 1.37 and 0.46 nM at 0, 24 and 48 hours. In addition, auadecitabine was dosed at 3000, 1000, 333.33, 111.11, 37.04, 12.35, 4.12, 1.37 and 0.46 nM at 0 hours without serial dosing (single dose). Cells were stained at day 0 and day 7 following cell plating samples were stained with the antibody panel details below and readout with an Intellicyt iQue Plus flow cytometer. Cells were stained using Notable labs staining protocol number (P.SOP.009.01_Screen Readout Automated). Staining Panel for Healthy CD34+ Bone Marrow: DAPI, CD45, CD3, CD19, CD16, CD14, CD38, CD33, CD34, CD90, CD123, CD274. Live cells were gated using FSC/SSC and DAPI exclusion using FlowJo analysis software (Beckman Flow), and then further defined by cell surface marker expression. Absolute counts from triplicate wells were averaged and normalized to a vehicle-only (DMSO) control.

[4] = tested on: SKM1 cell line; assay: CD123 MFI by flow cytometry, SKM1; type: cell-based; conditions: for CD123 MFI (dose dependent increase): SKM1, 0.46-3000 nM, day 7; for CD123 expression at clinically relevant dose (FIG. 2c): 1000 nM
Experimental: (§5) (c) Fold change in CD123 MFI at 1000 nM clinically relevant decitabine dose (P values are calculated by student Test). Cells are gated on live cells. Blast cells in AML cell lines were defined as CD33 or CD34 positive. Primary HSCs were defined as CD45^dimSSC^lowCD34^highCD38− and multipotent progenitors were defined as CD34^highCD38+, data represents mean of four normal donors and the error bars represent Standard deviation. Fold change in CD123 Mean Fluorescence Intensity (MFI) with respect to DMSO treated cells is presented.
as §2, §3, §4

[5] = tested on: Kasumi-1; assay: CD123 MFI by flow cytometry, Kasumi-1; type: cell-based; conditions: 0.46-3000 nM, day 7
Experimental: as §5
(§6) SKM1, Kasumi-1 and MOLM-13 cell lines were maintained in 80% RPMI 1640+20% FBS according to manufacturer's instructions. […]
(§7) The following compounds were serially dosed in 24-hour intervals using an acoustic liquid handler. […] The dose range of the compounds was determined by back calculating the clinical dose and corresponding to a plasma concentration at 1.5 hours after standard dosing. […] Cells were stained at day 0, day 3 and day 7 following cell plating samples were stained with the antibody panel details below and readout with an lntellicyt iQue Plus flow cytometer.
(§8) Cells were stained using Notable labs no wash protocol number (P.SOP.009.01_Screen Readout Automated), briefly, antibodies are added to cells with an acoustic liquid handler, incubated at 4° C. for 20 minutes and readout with an Intellicyt iQue Plus flow cytometer. […]

[6] = tested on: MOLM-13; assay: CD123 MFI by flow cytometry, MOLM-13; type: cell-based; conditions: 0.46-3000 nM, day 7
Experimental: as §5, §6, §7, §8

[7] = tested on: primary CD34+ Bone marrow cells; assay: CD123 MFI by flow cytometry, primary CD34+ bone marrow cells (overall); type: cell-based; conditions: for CD123 MFI / expression in primary bone marrow cells: four normal donors, dose range
Experimental: as §5
(§9) CD34 enriched bone marrow was purchase from AllCells.

[8] = tested on: PD-L1 expression in AML cell lines and primary bone marrow HSCs/MMPs; assay: PD-L1 expression by flow cytometry, AML cell lines and primary bone marrow cells; type: cell-based; conditions: any dose; all cell lines and primary bone marrow HSCs or MMPs
Description: Cells are gated on live cells. Blast cells in AML cell lines were defined as CD33 or CD34 positive. Primary HSCs were defined as CD45^dimSSC^lowCD34^highCD38− and multipotent progenitors were defined as CD34^highCD38+, data represents mean of four normal donors and the error bars represent Standard deviation.
as §2
as §7, with “handler. Decitabine, 5-azacytidine and guadecitabine were dosed at 3000, 1000, 333.33, 111.11, 37.04, 12.35, 4.12, 1.37 and 0.46 nM at 0, 24 and 48 hours.” for “handler.”
Cells were stained using Notable labs no wash protocol number (P.SOP.009.01_Screen Readout Automated), briefly, antibodies are added to cells with an acoustic liquid handler, incubated at 4° C. for 20 minutes and readout with an Intellicyt iQue Plus flow cytometer. […] Absolute counts or Mean Fluorescence Intensity from triplicate wells were averaged and fold change was calculated with respect to a vehicle-only (DMSO) control.
CD34 enriched bone marrow was purchase from AllCells. […] Cells were stained at day 0 and day 7 following cell plating samples were stained with the antibody panel details below and readout with an Intellicyt iQue Plus flow cytometer. Cells were stained using Notable labs staining protocol number (P.SOP.009.01_Screen Readout Automated). […]

[9] = tested on: Hematopoietic stem cells (HSCs); assay: CD123 expression by flow cytometry, primary hematopoietic stem cells; type: cell-based; conditions: for CD123 expression at clinically relevant dose (FIG. 2c): HSC; for increase in CD123 expression vs DMSO: HSCs
Description: as §5, with “(c) Fold change in CD123 MFI at 1000 nM clinically relevant decitabine dose (P values are calculated by student Test).” left out
as §9

[10] = tested on: CD38+CD34+ MMPs; assay: CD123 expression by flow cytometry, primary multipotent progenitors; type: cell-based; conditions: for average increase in CD123 expression vs DMSO / CD123 expression at clinically relevant dose (FIG. 2c): MMPs
Description: as §5, with “(c) Fold change in CD123 MFI at 1000 nM clinically relevant decitabine dose (P values are calculated by student Test).” left out
as §9

[11] = tested on: AML patients
Experimental: Fifteen AML patients treated in our ongoing first in human phase 1 clinical trial (NCT0262355) evaluating CD123CAR T cells in patients with relapsed or refractory AML or blastic plasmacytoid dendritic cell neoplasm (BPDCN) received lymphodepletion prior to CAR T cell infusion on day 0. All received fludarabine (25-30 mg/m2/day) and cyclophosphamide (300-500 mg/m2/day). Both were administered daily from days −5 to −3. Eight also received decitabine (20 mg/m2/day) given daily for 5 days from days −7 to −3 or daily for 3 days from days −5 to −3.

[12] = tested on: AML blasts; conditions: in vitro; reported; cited from earlier work
[13] = clinical dose 20 mg/m^2, 1-hour intravenous infusion, once per day for five consecutive days every 4 weeks; cited from earlier work
[14] = 5 day treatment, decitabine p<0.001, azacitidine p<0.05

| Structure (SMILES) | CD123 expression in AML cells [1, 14] | cell numbers (dose dependent decline) [2] | cell counts (dose dependent decline) [3] | CD123 MFI (dose dependent increase) [4] | CD123 MFI / expression in primary bone marrow cells [7] | PD-L1 expression [8] | CD123 expression at clinically relevant dose (FIG. 2c) [4] | CD123 expression at clinically relevant dose (FIG. 2c) ([9]; 1000 nM) | CD123 expression at clinically relevant dose (FIG. 2c) ([10]; 1000 nM) | further results |
| --- | --- | --- | --- | --- | --- | --- | --- | --- | --- | --- |
| Nc1ncn([C@@H]2O[C@H](CO)[C@@H](O)[C@H]2O)c(=O)n1 [5-azacytidine] | significant increase | dose dependent decline | dose dependent decline | did not impact | highly variable | no impact | – | – | – | CD123 MFI (dose dependent increase) [5]: did not impact; CD123 MFI (dose dependent increase) [6]: did not impact |
| CN[C@@H]1C[C@H]2O[C@@](C)([C@@H]1OC)n1c3ccccc3c3c4c(c5c6ccccc6n2c5c31)C(=O)NC4 [Staurosporine] | – | – | – | – | – | – | – | – | – | viable cells ([2]; positive control for cell death, all cell line groups): significant reductions; viable cells ([3]; positive control for cell death, primary cell groups): significant reductions |
| Nc1ncn([C@H]2C[C@H](O)[C@@H](CO)O2)c(=O)n1 [decitabine] | significant increase | dose dependent decline | dose dependent decline | upregulates | upregulates | no impact | significantly enhanced | significantly enhanced | significantly enhanced | CD123 expression in AML cells ([1]; 3 day treatment, p<0.001): significant increase; cell death at high dose ([3]; 3000 nM, FIG. 1b): cell death; CD123 MFI (dose dependent increase) ([4]; listed as Decitabine): dose dependent increase; increase in CD123 expression vs DMSO ([9]; 111.11 nM): 1.3 fold; increase in CD123 expression vs DMSO ([9]; 333.33 nM): 1.6 fold; increase in CD123 expression vs DMSO ([9]; 1000 nM): 1.4 fold; average increase in CD123 expression vs DMSO ([10]; 111.11 nM): 1.4 fold; average increase in CD123 expression vs DMSO ([10]; 333.33 nM): 1.4 fold; average increase in CD123 expression vs DMSO ([10]; 1000 nM): 1.3 fold; CD123 MFI with respect to DMSO treated cells ([7]; 3000 nM, FIG. 2b): no change; CD123 MFI in primary CD34+ bone marrow cells ([7]; clinically relevant dose of 1000 nM): increase; treatment related adverse events in decitabine treated group ([11]; 8 patients with decitabine vs 7 without): not observed increased treatment related adverse events; tolerability / dose limiting toxicities ([11]; AML patients, fludarabine and cyclophosphamide lymphodepletion, eight also decitabine 20 mg/m2/day, CAR T infusion day 0): well tolerated; CD123 expression in AML blasts [12]: upregulate; maximum plasma concentration after standard dosing [13]: 1.15 µM |
| Nc1ncn([C@H]2C[C@H](OP(=O)(O)OC[C@H]3O[C@@H](n4cnc5c(=O)[nH]c(N)nc54)C[C@@H]3O)[C@@H](CO)O2)c(=O)n1 [guadecitabine] | – | dose dependent decline | – | increase in CD123 MFI in a dose dependent manner | – | no impact | significantly enhanced | significantly enhanced | significantly enhanced | change in CD123 expression ([9]; normal bone marrow HSCs, regardless of the dose): did not show any change; change in CD123 expression ([10]; normal bone marrow MMPs, regardless of the dose): did not show any change |
